According to the NIST ThermoML archive (doi:10.1021/je900743e):

Key:
[1] = Crystal; visual observation
[2] = wn = mass fraction of the nth substance listed; settings: 101 kPa, Liquid; for viscosity: Capillary tube (Ostwald / Ubbelohde) method; for mass density: Pycnometric method

[Br-].[Br-].c1cc[n+](CCCCC[n+]2ccccc2)cc1 [1,1'-(pentane-1,5-diyl)-bis(pyridinium) dibromide]
Settings | Normal melting temperature [°C]
[1] | 198.00

CCO [ethanol] + O
[2]
Settings | mass density, w1 = 0.1 [kg/m3] | mass density, w1 = 0.2 [kg/m3] | mass density, w1 = 0.3 [kg/m3] | mass density, w1 = 0.4 [kg/m3] | mass density, w1 = 0.5 [kg/m3] | viscosity, w1 = 0.1 [mPa·s] | viscosity, w1 = 0.2 [mPa·s] | viscosity, w1 = 0.3 [mPa·s] | viscosity, w1 = 0.4 [mPa·s] | viscosity, w1 = 0.5 [mPa·s]
293.15 K | 981.8 | 968.2 | 953.6 | 935.5 | 913.9 | 1.538 | 2.183 | 2.701 | 2.91 | 2.87
303.15 K | 979 | 964.1 | 947.4 | 927.2 | 905.6 | 1.16 | 1.553 | 1.87 | 2.02 | 2.022
313.15 K | 974.6 | 958.7 | 940.3 | 919.8 | 897.6 | 0.9068 | 1.16 | 1.368 | 1.482 | 1.499
